The supplement of paper PMC10307832

Columns and labels:
Experiment in all cases: relative viability (nuclei count vs DMSO), 5 days (fraction); higher = more cells survive
XMD13-2 + Lapatinib = compound: C1CC1C(=O)NC2=NNC3=C2C=CC(=C3)C4=CC(=CC=C4)C(=O)NC5CC5 [XMD13-2] + CS(=O)(=O)CCNCc1ccc(-c2ccc3ncnc(Nc4ccc(OCc5cccc(F)c5)c(Cl)c4)c3c2)o1 [Lapatinib] (partner 2 µM)
Outline: (§1)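 After 5 days of treatment, lung cancer cells in 1536-well plates were fixed and stained in a single step (final 0.05% Triton X-100, 1% formaldehyde, 1 ug/ml Hoechst) and their nuclei counted on 4× images. Treatment had been applied by pin tool the day after seeding as one drug alone or as a fixed anchor-drug dose with five library-drug doses (not always all listed) in √10 steps. Relative viability is the nuclei count of treated wells divided by that of vehicle wells, and values are medians of duplicate plates.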

XMD13-2 + Phenformin = compound: C1CC1C(=O)NC2=NNC3=C2C=CC(=C3)C4=CC(=CC=C4)C(=O)NC5CC5 [XMD13-2] + N=C(N)NC(=N)NCCc1ccccc1 [Phenformin] (partner 250 µM)
Outline: as §1

[1] = compound: Cc1ccc(C(=O)Nc2cccc(C(F)(F)F)c2)cc1Nc1cncc(C(N)=O)c1 [ALW-II-49-7] + CC(=O)c1c(C)c2cnc(Nc3ccc(N4CCNCC4)cn3)nc2n(C2CCCC2)c1=O [Palbociclib] (partner 0.5 µM)
Outline: as §1

ALW-II-49-7 + AZD7762 = compound: Cc1ccc(C(=O)Nc2cccc(C(F)(F)F)c2)cc1Nc1cncc(C(N)=O)c1 [ALW-II-49-7] + NC(=O)Nc1cc(-c2cccc(F)c2)sc1C(=O)N[C@H]1CCCNC1 [AZD7762] (partner 0.2 µM)
Outline: as §1

## HOP-62
XMD13-2 + Lapatinib; first compound 0.05 µM
  relative viability: 1.17
XMD13-2 + Lapatinib; first compound 0.1581 µM
  relative viability: 1.02
XMD13-2 + Lapatinib; first compound 0.5 µM
  relative viability: 1.09
XMD13-2 + Lapatinib; first compound 1.581 µM
  relative viability: 1.25
XMD13-2 + Lapatinib; first compound 5 µM
  relative viability: 1.07
XMD13-2 + Phenformin; first compound 0.05 µM
  relative viability: 0.671
XMD13-2 + Phenformin; first compound 0.1581 µM
  relative viability: 0.687
XMD13-2 + Phenformin; first compound 0.5 µM
  relative viability: 0.837
XMD13-2 + Phenformin; first compound 1.581 µM
  relative viability: 0.595
XMD13-2 + Phenformin; first compound 5 µM
  relative viability: 0.553
[1]; first compound 0.08 µM
  relative viability: 0.49
[1]; first compound 0.253 µM
  relative viability: 0.423
[1]; first compound 0.8 µM
  relative viability: 0.461
[1]; first compound 2.53 µM
  relative viability: 0.33
[1]; first compound 8 µM
  relative viability: 0.336
ALW-II-49-7 + AZD7762; first compound 0.08 µM
  relative viability: 0.386
ALW-II-49-7 + AZD7762; first compound 0.253 µM
  relative viability: 0.455
ALW-II-49-7 + AZD7762; first compound 0.8 µM
  relative viability: 0.648
ALW-II-49-7 + AZD7762; first compound 2.53 µM
  relative viability: 0.619
ALW-II-49-7 + AZD7762; first compound 8 µM
  relative viability: 0.586

## EKVX
XMD13-2 + Lapatinib; first compound 0.05 µM
  relative viability: 0.205
XMD13-2 + Lapatinib; first compound 0.1581 µM
  relative viability: 0.173
XMD13-2 + Lapatinib; first compound 0.5 µM
  relative viability: 0.177
XMD13-2 + Lapatinib; first compound 1.581 µM
  relative viability: 0.192
XMD13-2 + Lapatinib; first compound 5 µM
  relative viability: 0.196
XMD13-2 + Phenformin; first compound 0.05 µM
  relative viability: 0.224
XMD13-2 + Phenformin; first compound 0.1581 µM
  relative viability: 0.222
XMD13-2 + Phenformin; first compound 0.5 µM
  relative viability: 0.229
XMD13-2 + Phenformin; first compound 1.581 µM
  relative viability: 0.212
XMD13-2 + Phenformin; first compound 5 µM
  relative viability: 0.238
[1]; first compound 0.08 µM
  relative viability: 0.454
[1]; first compound 0.253 µM
  relative viability: 0.344
[1]; first compound 0.8 µM
  relative viability: 0.413
[1]; first compound 2.53 µM
  relative viability: 0.278
[1]; first compound 8 µM
  relative viability: 0.359
ALW-II-49-7 + AZD7762; first compound 0.08 µM
  relative viability: 0.665
ALW-II-49-7 + AZD7762; first compound 0.253 µM
  relative viability: 0.619
ALW-II-49-7 + AZD7762; first compound 0.8 µM
  relative viability: 0.821
ALW-II-49-7 + AZD7762; first compound 2.53 µM
  relative viability: 0.574
ALW-II-49-7 + AZD7762; first compound 8 µM
  relative viability: 0.646

## EMC-BAC-2
XMD13-2 + Lapatinib; first compound 0.05 µM
  relative viability: 1.03
XMD13-2 + Lapatinib; first compound 0.1581 µM
  relative viability: 0.866
XMD13-2 + Lapatinib; first compound 0.5 µM
  relative viability: 0.92
XMD13-2 + Lapatinib; first compound 1.581 µM
  relative viability: 0.879
XMD13-2 + Lapatinib; first compound 5 µM
  relative viability: 0.532
XMD13-2 + Phenformin; first compound 0.05 µM
  relative viability: 0.534
XMD13-2 + Phenformin; first compound 0.1581 µM
  relative viability: 0.52
XMD13-2 + Phenformin; first compound 0.5 µM
  relative viability: 0.586
XMD13-2 + Phenformin; first compound 1.581 µM
  relative viability: 0.511
XMD13-2 + Phenformin; first compound 5 µM
  relative viability: 0.561
[1]; first compound 0.08 µM
  relative viability: 0.499
[1]; first compound 0.253 µM
  relative viability: 0.519
[1]; first compound 0.8 µM
  relative viability: 0.488
[1]; first compound 2.53 µM
  relative viability: 0.437
[1]; first compound 8 µM
  relative viability: 0.391
ALW-II-49-7 + AZD7762; first compound 0.08 µM
  relative viability: 1.09
ALW-II-49-7 + AZD7762; first compound 0.253 µM
  relative viability: 1.21
ALW-II-49-7 + AZD7762; first compound 0.8 µM
  relative viability: 0.916
ALW-II-49-7 + AZD7762; first compound 2.53 µM
  relative viability: 1.11
ALW-II-49-7 + AZD7762; first compound 8 µM
  relative viability: 0.896

## HARA
XMD13-2 + Lapatinib; first compound 0.05 µM
  relative viability: 0.825
XMD13-2 + Lapatinib; first compound 0.1581 µM
  relative viability: 0.886
XMD13-2 + Lapatinib; first compound 0.5 µM
  relative viability: 0.699
XMD13-2 + Lapatinib; first compound 1.581 µM
  relative viability: 0.711
XMD13-2 + Lapatinib; first compound 5 µM
  relative viability: 0.538
XMD13-2 + Phenformin; first compound 0.05 µM
  relative viability: 0.477
XMD13-2 + Phenformin; first compound 0.1581 µM
  relative viability: 0.438
XMD13-2 + Phenformin; first compound 0.5 µM
  relative viability: 0.474
XMD13-2 + Phenformin; first compound 1.581 µM
  relative viability: 0.44
XMD13-2 + Phenformin; first compound 5 µM
  relative viability: 0.485
[1]; first compound 0.08 µM
  relative viability: 0.239
[1]; first compound 0.253 µM
  relative viability: 0.265
[1]; first compound 0.8 µM
  relative viability: 0.249
[1]; first compound 2.53 µM
  relative viability: 0.261
[1]; first compound 8 µM
  relative viability: 0.254
ALW-II-49-7 + AZD7762; first compound 0.08 µM
  relative viability: 0.325
ALW-II-49-7 + AZD7762; first compound 0.253 µM
  relative viability: 0.28
ALW-II-49-7 + AZD7762; first compound 0.8 µM
  relative viability: 0.3
ALW-II-49-7 + AZD7762; first compound 2.53 µM
  relative viability: 0.375
ALW-II-49-7 + AZD7762; first compound 8 µM
  relative viability: 0.347

## LU99A
XMD13-2 + Lapatinib; first compound 0.05 µM
  relative viability: 1.21
XMD13-2 + Lapatinib; first compound 0.1581 µM
  relative viability: 0.975
XMD13-2 + Lapatinib; first compound 0.5 µM
  relative viability: 1.02
XMD13-2 + Lapatinib; first compound 1.581 µM
  relative viability: 0.858
XMD13-2 + Lapatinib; first compound 5 µM
  relative viability: 0.42
XMD13-2 + Phenformin; first compound 0.05 µM
  relative viability: 1.08
XMD13-2 + Phenformin; first compound 0.1581 µM
  relative viability: 0.752
XMD13-2 + Phenformin; first compound 0.5 µM
  relative viability: 0.833
XMD13-2 + Phenformin; first compound 1.581 µM
  relative viability: 0.885
XMD13-2 + Phenformin; first compound 5 µM
  relative viability: 0.852
[1]; first compound 0.253 µM
  relative viability: 0.403
[1]; first compound 0.8 µM
  relative viability: 0.39
[1]; first compound 2.53 µM
  relative viability: 0.377
[1]; first compound 8 µM
  relative viability: 0.359
ALW-II-49-7 + AZD7762; first compound 0.253 µM
  relative viability: 0.376
ALW-II-49-7 + AZD7762; first compound 0.8 µM
  relative viability: 0.294
ALW-II-49-7 + AZD7762; first compound 2.53 µM
  relative viability: 0.312
ALW-II-49-7 + AZD7762; first compound 8 µM
  relative viability: 0.626
